# According to US11046716B2, “Beta-lactamase inhibitors” (priority 2015, dated 2021):
# Experiments:
# [1] = tested on: K. pneumoniae expressing the class A carbapenemase KPC-2 and the class B carbapenemase VIM-4; assay: Broth microdilution MIC assay with meropenem, K. pneumoniae KPC-2 and VIM-4; type: cell-based; conditions: Fixed Mero (meropenem) 4 μg/mL; K. p. A-1797 KPC-2 VIM-4
# Procedure, shortened: (§1)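 Test compounds in 2-fold dilutions (16 to 0.125 μg/mL final) in CAMHB were combined with a β-lactam at a static 4 μg/ml final. Plates were inoculated per CLSI broth microdilution with the β-lactamase-producing strain (pre-grown 3-5 h) and incubated 16-20 h at 37° C. MIC of test compound was read visually.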
# [2] = target: T1, AmpC (Enterobacter cloacae, UniProt P05364); assay: β-lactamase enzyme inhibition assay, p99 AmpC (nitrocefin substrate); type: biochemical
# T1 construct: made in house; host or cells: E. coli BL21(DE3)
# T1 sequence (P05364 21-381): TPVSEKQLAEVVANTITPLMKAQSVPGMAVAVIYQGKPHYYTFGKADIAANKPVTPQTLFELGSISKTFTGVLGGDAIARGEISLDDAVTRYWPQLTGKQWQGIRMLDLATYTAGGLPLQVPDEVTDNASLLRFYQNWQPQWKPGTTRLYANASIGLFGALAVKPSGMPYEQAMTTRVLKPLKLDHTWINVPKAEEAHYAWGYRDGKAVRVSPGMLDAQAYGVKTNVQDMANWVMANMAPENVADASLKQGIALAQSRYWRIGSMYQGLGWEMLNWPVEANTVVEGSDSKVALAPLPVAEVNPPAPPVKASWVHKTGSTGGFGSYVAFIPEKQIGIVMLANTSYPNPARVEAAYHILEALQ
# Procedure, shortened: (§2)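 Native untagged enzymes expressed in E. coli BL21(DE3), purified by cation exchange and gel filtration. Inhibitor preincubated with enzyme 15 min at 37 °C; hydrolysis followed by absorbance. IC50 as concentration halving initial hydrolysis rate versus inhibitor-free wells.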
# [3] = tested on: K. pneumoniae expressing the Class A carbapenemase KPC-2; assay: Broth microdilution MIC assay with meropenem, K. pneumoniae KPC-2; type: cell-based; conditions: Fixed Mero (meropenem) 4 μg/mL; K. p. 156319 KPC-3
# Procedure, shortened: as §1
# [4] = tested on: K. pneumoniae producing the Class D carbapenemase OXA-48; assay: Broth microdilution MIC assay with meropenem, K. pneumoniae OXA-48; type: cell-based; conditions: Fixed Mero (meropenem) 4 μg/mL; K. p. 11978 OXA-48
# Procedure, shortened: as §1
# [5] = target: T2, KPC-2 (Klebsiella pneumoniae, UniProt Q9F663); assay: β-lactamase enzyme inhibition assay, KPC-2 (imipenem substrate); type: biochemical; conditions: Class A; imipenem substrate, 300 nm; read-out: KPC-2
# T2 construct: made in house; host or cells: E. coli BL21(DE3)
# T2 sequence (Q9F663 25-293, looked up): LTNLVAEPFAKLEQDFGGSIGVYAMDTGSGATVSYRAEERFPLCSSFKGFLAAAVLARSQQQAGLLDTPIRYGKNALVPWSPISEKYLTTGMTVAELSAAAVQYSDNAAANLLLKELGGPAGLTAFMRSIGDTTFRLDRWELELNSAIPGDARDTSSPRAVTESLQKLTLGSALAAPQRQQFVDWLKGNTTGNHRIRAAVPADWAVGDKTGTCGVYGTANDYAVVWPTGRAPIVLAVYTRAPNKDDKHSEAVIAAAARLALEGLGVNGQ
# Procedure, shortened: as §2, with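 “absorbance: imipenem at 300 nm for KPC-2, cefotaxime at 260 nm for SHV-5.” for “absorbance.”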
# [6] = target: OXA-48 (UniProt Q6XEC0); assay: β-lactamase enzyme inhibition assay, Class D oxacillinase; type: biochemical; conditions: read-out: OXA-48
# [7] = tested on: P. aeruginosa expressing the Class B carbapenemase VIM-2; assay: Broth microdilution MIC assay with meropenem, P. aeruginosa VIM-2; type: cell-based; conditions: Fixed Mero (meropenem) 4 μg/mL; P. aerug. 2775 VIM-2
# Procedure, shortened: as §1
# [8] = tested on: E. cloacae expressing the Class C P99; assay: Broth microdilution MIC assay with ceftazidime, E. cloacae P99; type: cell-based; conditions: Fixed CAZ (ceftazidime) 4 μg/mL; E. cl. 144200 p99 AmpC
# Procedure, shortened: as §1
# [9] = target: T3, VIM-2 (Escherichia coli, UniProt Q5U7L7); assay: β-lactamase enzyme inhibition assay, VIM-2 (nitrocefin substrate); type: biochemical; conditions: Class B; nitrocefin substrate, 486 nm; read-out: VIM-2
# T3 construct: made in house; host or cells: E. coli BL21(DE3)
# Procedure, shortened: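 Purified VIM-2 preincubated with inhibitor for 15 min at 37° C, then nitrocefin (100 μM final) added and absorbance at 486 nm followed for 10 min. Maximum hydrolysis rates compared with inhibitor-free controls; IC50 fitted from percent inhibition across inhibitor concentrations.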
# [10] = target: T4, SHV-5 (Klebsiella pneumoniae, UniProt P0A3M1); assay: β-lactamase enzyme inhibition assay, SHV-5 (cefotaxime substrate); type: biochemical
# T4 construct: made in house; host or cells: E. coli BL21(DE3)
# T4 sequence (P0A3M1 22-286): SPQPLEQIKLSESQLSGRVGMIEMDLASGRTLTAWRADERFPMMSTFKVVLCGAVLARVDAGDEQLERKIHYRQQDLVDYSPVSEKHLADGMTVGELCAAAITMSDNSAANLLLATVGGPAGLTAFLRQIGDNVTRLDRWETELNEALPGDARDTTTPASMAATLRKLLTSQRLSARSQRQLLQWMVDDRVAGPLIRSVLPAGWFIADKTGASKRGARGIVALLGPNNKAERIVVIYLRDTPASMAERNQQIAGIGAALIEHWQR
# Procedure, shortened: as §2, with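 “absorbance: imipenem at 300 nm for KPC-2, cefotaxime at 260 nm for SHV-5.” for “absorbance.”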
# [11] = tested on: E. coli expressing the Class A Extended Spectrum Beta-Lactamase (ESBL) CTX-M-15; assay: Broth microdilution MIC assay with ceftazidime, E. coli CTX-M-15; type: cell-based; conditions: Fixed CAZ (ceftazidime) 4 μg/mL; E. coli ESBL4 CTX-M-15
# Procedure, shortened: as §1
SMILES,MIC (μg/mL) of Exemplary Compounds in presence of fixed β-lactams: K. p. A-1797 KPC-2 VIM-4 [1],IC50 [2] [nM],MIC (μg/mL) of Exemplary Compounds in presence of fixed β-lactams: K. p. 156319 KPC-3 [3],MIC (μg/mL) of Exemplary Compounds in presence of fixed β-lactams: K. p. 11978 OXA-48 [4],IC50 [5] [nM],IC50 [6] [nM],MIC (μg/mL) of Exemplary Compounds in presence of fixed β-lactams: P. aerug. 2775 VIM-2 [7],MIC (μg/mL) of Exemplary Compounds in presence of fixed β-lactams: E. cl. 144200 p99 AmpC [8],IC50 [9] [nM],IC50 [10] [nM],MIC (μg/mL) of Exemplary Compounds in presence of fixed β-lactams: E. coli ESBL4 CTX-M-15 [11]
"NNC(=O)Cn1nnc(CC(=O)N[C@H]2Cc3cccc(C(=O)O)c3OB2O)n1 [Example 96, (R)-3-(2-(2-(2-hydrazinyl-2-oxoethyl)-2H-tetrazol-5-yl)acetamido)-2-hydroxy-3,4-dihydro-2H-benzo[e][1,2]oxaborinine-8-carboxylic acid]",B (B represents an MIC between 1 and 16 μg/mL inclusive),< 100,B (B represents an MIC between 1 and 16 μg/mL inclusive),B (B represents an MIC between 1 and 16 μg/mL inclusive),< 100,< 100,C (C represents an MIC of <1 μg/mL),C (C represents an MIC of <1 μg/mL),100 to 1000,< 100,C (C represents an MIC of <1 μg/mL)
"O=C(Cn1cnnn1)N[C@H]1Cc2cccc(C(=O)O)c2OB1O [Example 97, (R)-3-(2-(1H-tetrazol-1-yl)acetamido)-2-hydroxy-3,4-dihydro-2H-benzo[e][1,2]oxaborinine-8-carboxylic acid]",B (B represents an MIC between 1 and 16 μg/mL inclusive),< 100,C (C represents an MIC of <1 μg/mL),C (C represents an MIC of <1 μg/mL),< 100,< 100,B (B represents an MIC between 1 and 16 μg/mL inclusive),C (C represents an MIC of <1 μg/mL),100 to 1000,< 100,C (C represents an MIC of <1 μg/mL)
"O=C(Cc1nnnn1CC1CCNCC1)N[C@H]1Cc2cccc(C(=O)O)c2OB1O [Example 98, (R)-2-hydroxy-3-(2-(1-(piperidin-4-ylmethyl)-1H-tetrazol-5-yl)acetamido)-3,4-dihydro-2H-benzo[e][1,2]oxaborinine-8-carboxylic acid]",B (B represents an MIC between 1 and 16 μg/mL inclusive),< 100,C (C represents an MIC of <1 μg/mL),B (B represents an MIC between 1 and 16 μg/mL inclusive),< 100,100 to 1000,C (C represents an MIC of <1 μg/mL),C (C represents an MIC of <1 μg/mL),< 100,< 100,C (C represents an MIC of <1 μg/mL)
"O=C(Cc1nnn(CC2CCNCC2)n1)N[C@H]1Cc2cccc(C(=O)O)c2OB1O [Example 99, (R)-2-hydroxy-3-(2-(2-(piperidin-4-ylmethyl)-2H-tetrazol-5-yl)acetamido)-3,4-dihydro-2H-benzo[e][1,2]oxaborinine-8-carboxylic acid]",B (B represents an MIC between 1 and 16 μg/mL inclusive),< 100,C (C represents an MIC of <1 μg/mL),B (B represents an MIC between 1 and 16 μg/mL inclusive),< 100,100 to 1000,C (C represents an MIC of <1 μg/mL),C (C represents an MIC of <1 μg/mL),100 to 1000,< 100,C (C represents an MIC of <1 μg/mL)
